The source of these data is patent publication US20140142094A1, “KINASE INHIBITORS” (ICAHN SCHOOL OF MEDICINE AT MOUNT SINAI, priority 2011, published 2014).

Data set [1] concerns K562 (chronic myelogenous leukemia; leukemia cell line +ve for Bcr-Abl). Kind of data set: Cytotoxicity on K562 cancer cell line. The class given is cell-based. To be noted: Homo sapiens; K562 cells, 96 h treatment. As for the experimental part:
(§1) The effect of the compounds described herein on tumor cells was determined by the assay described by Latham et al., Oncogene 12:827-837 (1996). Tumor cells K562 (chronic myelogenous leukemia; leukemia cell line +ve for Bcr-Abl) or DU145 (prostate cancer) were plated in 12-well dishes at a cell density of 2.5×10^4 cells per well. The plated cells were treated 24h. later with a DMSO solution of a compound as described herein at multiple concentrations ranging from 0.01 μM to 100 μM. The plates were examined 96 h. later under an inverted microscope, Olympus CK-2 using a 10× objective, and compound activity was noted by physical observation. When necessary, the total number of viable cells was determined by trypsinizing the wells and counting the number of viable cells, as determined by trypan blue exclusion, using a hemacytometer.

The next data set concerns DU145 (prostate cancer). The data set can be described thus: Cytotoxicity on DU145 cancer cell line. The class given is cell-based. To be noted: Homo sapiens, DU-145; DU145 cells, 96 h treatment. As for the experimental part: as §1

Molecules are shown by their SMILES. Where only a bound is given, the exact number is not on record here.

For orientation: IC50 means the concentration at which inhibition is half-maximal. High values mean lower potency, low ones higher potency. The melting point is the temperature, or range, at which the solid turns liquid.

`CN1CCN(c2ccc(Nc3ncc4c(n3)S/C(=C/c3ccc(O)cc3)C(=O)N4)cc2)CC1` [Compound 1q, (E)-7-(4-Hydroxybenzylidene)-2-((4-(4-methylpiperazin-1-yl)phenyl)amino)-5H-pyrimido[4,5-b][1,4]thiazin-6(7H)-one] yielded a melting point of 312 to 314 °C. Besides, the IC50 in data set [1] was under 1 µM. This compound also had an IC50 in the data set with DU145 (prostate cancer) of under 1 µM.

Regarding `CN1CCN(c2ccc(Nc3ncc4c(n3)SCC(=O)N4)cc2)CC1` [Compound 4a, 2-(4-(4-methylpiperazin-1-yl)phenylamino)-5H-pyrimido[4,5-b][1,4]thiazin-6(7H)-one], the concentration for half-maximal inhibition (IC50) fell in the range of 1 to 10 µM in data set [1] and 10 to 25 µM with DU145 (prostate cancer).

Turning to `COc1ccc(/C=C2/Sc3nc(N(C(C)=O)c4ccc(N5CCN(C)CC5)cc4)ncc3NC2=O)cc1[N+](=O)[O-]` [Compound 1d, (E)-N-(7-(4-methoxy-3-nitrobenzylidene)-6-oxo-6,7-dihydro-5H-pyrimido[4,5-b][1,4]thiazin-2-yl)-N-(4-(4-methylpiperazin-1-yl)phenyl)acetamide], the 50% inhibitory concentration (IC50) (in data set [1]; in the data set with DU145 (prostate cancer)) was 1 to 10 µM each time.

With `O=C1Nc2cnc(N3CCN(c4ccccn4)CC3)nc2S/C1=C/c1ccc([N+](=O)[O-])cc1` [Compound 1e, (E)-7-(4-Nitrobenzylidene)-2-(4-(pyridin-2-yl)piperazin-1-yl)-5H-pyrimido[4,5-b][1,4]thiazin-6(7H)-one], the IC50 lay in the range of 10 to 25 µM in data set [1] and 1 to 10 µM in the data set with DU145 (prostate cancer).

`CN1CCN(c2ccc(Nc3ncc4c(n3)S/C(=C/c3ccc(N)cc3)C(=O)N4)cc2)CC1` [Compound 1h, (E)-7-(4-Aminobenzlidene)-2-(4-(4-methylpiperazin-1-yl)phenylamino)-5H-pyrimido[4,5-b][1,4]thiazin-6(7H)-one]: the concentration for half-maximal inhibition (IC50) in data set [1] is under 1 µM; in the data set with DU145 (prostate cancer) it was 1 to 10 µM.

For the compound `CN1CCN(c2ccc(Nc3ncc4c(n3)S/C(=C/c3ccc(OCc5ccccc5)cc3)C(=O)N4)cc2)CC1` [Compound 1o, (E)-7-(4-(Benzyloxy)benzylidene)-2-((4-(4-methylpiperazin-1-yl)pheny)amino)-5H-pyrimido[4,5-b][1,4]thiazin-6(7H)-one], the melting point fell in the range of 238 to 240 °C. The 50% inhibitory concentration (IC50) in data set [1] is under 1 µM. Moreover, in the data set with DU145 (prostate cancer), the 50% inhibitory concentration (IC50) was under 1 µM.

For `CC1CCN(c2ccc(Nc3ncc4c(n3)S/C(=C/c3ccc([N+](=O)[O-])cc3)C(=O)N4)cc2)CC1` [Compound 1m, (E)-2-((4-(4-Methylpiperidin-1-yl)phenyl)amino)-7-(4-nitrobenzylidene)-5H-pyrimido[4,5-b][1,4]thiazin-6(7H)-one], the half-maximal inhibitory concentration (IC50) (in data set [1]; in the data set with DU145 (prostate cancer)) was 1 to 10 µM in each case.

Regarding `CC(=O)Oc1ccc(/C=C2/Sc3nc(N4CCN(c5ccccn5)CC4)ncc3NC2=O)cc1` [Compound 1i, (E)-4-((6-Oxo-2-(4-(pyridin-2-yl)piperazin-1-yl)-5H-pyrimido[4,5-b][1,4]thiazin-7(6H)-ylidene)methyl)phenyl acetate], the IC50 (in data set [1]; in the data set with DU145 (prostate cancer)) was 1 to 10 µM each time.

`CC(=O)N(c1ccc(N2CCN(C)CC2)cc1)c1ncc2c(n1)S/C(=C/c1ccc(C(=O)O)cc1)C(=O)N2` [Compound 1l, (E)-4-((2-(N-(4-(4-Methylpiperazin-1-yl)phenyl)acetamido)-6-oxo-5H-pyrimido[4,5-b][1,4]thiazin-7(6H)-ylidene)methyl)benzoic acid]: the melting point fell in the range of 326 to 330 °C. In data set [1], this compound displayed an IC50 of 50 to 100 µM. For the same compound, in the data set with DU145 (prostate cancer), the 50% inhibitory concentration (IC50) fell in the range of 50 to 100 µM.

With `CN1CCN(c2ccc(Nc3ncc4c(n3)S/C(=C/c3ccc(F)cc3)C(=O)N4)cc2)CC1` [Compound 1a, (E)-7-(4-Fluorobenzylidene)-2-(4-(4-methylpiperazin-1-yl)phenylamino)-5H-pyrimido[4,5-b][1,4]thiazin-6(7H)-one], the IC50 (in data set [1]; in the data set with DU145 (prostate cancer)) was 1 to 10 µM in each case.

Consider `O=C1CSc2nc(SCc3c(Cl)cccc3Cl)ncc2N1` [Compound 4d, 2-(2,6-Dichlorobenzylthio)-5H-pyrimido[4,5-b][1,4]thiazin-6(7H)-one], for which the melting point is 242 to 244 °C. The concentration for half-maximal inhibition (IC50) in data set [1] lay within 25 to 50 µM. The IC50 with DU145 (prostate cancer) is 25 to 50 µM.

The compound `CN1CCN(c2ccc(Nc3ncc4c(n3)S/C(=C/c3ccc(C#N)cc3)C(=O)N4)cc2)CC1` [Compound 1n, (E)-4-((2-((4-(4-Methylpiperazin-1-yl)phenyl)amino)-6-oxo-5H-pyrimido[4,5-b][1,4]thiazin-7(6H)-ylidene)methyl)benzonitrile] returned a melting point of 274 to 276 °C. The same compound came in with a half-maximal inhibitory concentration (IC50) in data set [1] of under 1 µM. In the data set on DU145 (prostate cancer), this compound registered an IC50 of under 1 µM.

For the compound `CC(=O)N(c1ccc(N2CCN(C)CC2)cc1)c1ncc2c(n1)S/C(=C/c1cn(C(C)=O)c3ccccc13)C(=O)N2` [Compound 1g, (E)-N-(7-((1-Acetyl-1H-indol-3-yl)methylene)-6-oxo-6,7-dihydro-5H-pyrimido[4,5-b][1,4]thiazin-2-yl)-N-(4-(4-methylpiperazin-1-yl)phenyl)acetamide], the concentration for half-maximal inhibition (IC50) (in data set [1]; with DU145 (prostate cancer)) was 1 to 10 µM throughout.

In the case of `CN1CCN(c2ccc(Nc3ncc4c(n3)S/C(=C/c3ccc(C(N)=O)cc3)C(=O)N4)cc2)CC1` [Compound 1p, (E)-4-((2-((4-(4-Methylpiperazin-1-yl)phenyl)amino)-6-oxo-5H-pyrimido[4,5-b][1,4]thiazin-7(6H)-ylidene)methyl)benzamide], the melting point was in the range of 294 to 298 °C. Besides, the IC50 in data set [1] was in the range of 1 to 10 µM. In the data set with DU145 (prostate cancer), this compound showed a half-inhibitory concentration (IC50) of 1 to 10 µM.

In the case of `O=C1Nc2cnc(N3CCN(c4ncccn4)CC3)nc2S/C1=C/c1ccc([N+](=O)[O-])cc1` [Compound 1j, (E)-7-(4-Nitrobenzylidene)-2-(4-(pyrimidin-2-yl)piperazin-1-yl)-5H-pyrimido[4,5-b][1,4]thiazin-6(7H)-one], the results for the half-inhibitory concentration (IC50) (in data set [1]; in the data set on DU145 (prostate cancer)) were 50 to 100 µM and 25 to 50 µM, respectively.

Regarding `CC(=O)N1CCN(c2ccc(Oc3ncc4c(n3)S/C(=C/c3ccc([N+](=O)[O-])cc3)C(=O)N4)cc2)CC1` [Compound 1f, (E)-2-(4-(4-Acetylpiperazin-1-yl)phenoxy)-7-(4-nitrobenzylidene)-5H-pyrimido[4,5-b][1,4]thiazin-6(7H)-one], the half-maximal inhibitory concentration (IC50) (in data set [1]; in the data set with DU145 (prostate cancer)) was 10 to 25 µM throughout.

For the compound `CC(=O)Oc1ccc(/C=C2/Sc3nc(Nc4ccc(N5CCN(C)CC5)cc4)ncc3NC2=O)cc1` [Compound 1c, (E)-4-((2-(4-(4-Methylpiperazin-1-yl)phenylamino)-6-oxo-5H-pyrimido[4,5-b][1,4]thiazin-7(6H)-ylidene)methyl)phenyl acetate], the IC50 (in data set [1]; with DU145 (prostate cancer)) was 1 to 10 µM throughout.

The compound `O=C1Nc2cnc(Nc3ccc(N4CCOCC4)cc3)nc2S/C1=C/c1ccc([N+](=O)[O-])cc1` [Compound 1k, (E)-2-((4-Morpholinophenyl)amino)-7-(4-nitrobenzylidene)-5H-pyrimido[4,5-b][1,4]thiazin-6(7H)-one] registered a melting point of 302 to 304 °C. In data set [1], this compound displayed an IC50 of 50 to 100 µM. In the data set on DU145 (prostate cancer), the half-inhibitory concentration (IC50) lay within 50 to 100 µM.
